In publication PMC5482243 (Investigative Ophthalmology & Visual Science, 2017):
Like-named read-outs stand apart in the source and are kept apart here.

How the values were obtained:
Experiment in all cases: β-arrestin recruitment assay
Type in all cases: cell-based
GPR143 (pm-GPR143) [1] = biological target: T1, GPR143 (pm-GPR143) (Homo sapiens, UniProt P51810, E330A/L223A/L224A/W329A)
GPR143 (wt-GPR143) = GPR143 (wt-GPR143) (Homo sapiens, UniProt P51810)
GPR143 (pm-GPR143) [2] = biological target: T1, GPR143 (pm-GPR143); remark: listed apart in the source

T1 sequence (P51810 whole entry L223A/L224A/W329A/E330A): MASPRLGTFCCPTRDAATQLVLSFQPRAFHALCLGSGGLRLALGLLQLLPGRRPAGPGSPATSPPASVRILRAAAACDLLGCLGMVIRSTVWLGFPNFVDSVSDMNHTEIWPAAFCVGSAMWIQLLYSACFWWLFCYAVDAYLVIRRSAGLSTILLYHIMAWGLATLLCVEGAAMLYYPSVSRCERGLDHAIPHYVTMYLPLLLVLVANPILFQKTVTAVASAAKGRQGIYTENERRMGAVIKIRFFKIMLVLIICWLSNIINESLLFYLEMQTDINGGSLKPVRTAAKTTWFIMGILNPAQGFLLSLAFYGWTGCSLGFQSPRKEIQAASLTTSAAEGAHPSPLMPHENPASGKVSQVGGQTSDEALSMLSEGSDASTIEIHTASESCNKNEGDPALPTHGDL
Sequence of GPR143 (wt-GPR143) (P51810 whole entry): as the sequence (P51810 whole entry L223A/L224A/W329A/E330A) above, with A223L, A224L, A329W, A330E counted along it

Structure (SMILES) | EC50 (GPR143 (pm-GPR143) [1]) [µM] | EC50 (GPR143 (wt-GPR143)) [µM] | EC50 (GPR143 (pm-GPR143) [2]) [µM]
O=C(Nc1ccc([N+](=O)[O-])cc1Cl)c1cc(Cl)ccc1O [niclosamide] | 3.4 ± 1.11 | – | –
O=c1[nH]c2ccccc2n1C1CCN(CCCC(c2ccc(F)cc2)c2ccc(F)cc2)CC1 [pimozide] | – | 4.62 ± 1.37 | 2.72 ± 1.17
CCOc1ccc2nc3cc(N)ccc3c(N)c2c1 [ethacridine lactate] | 26.1 ± 1.03 | – | –
